pIC50: −log10 of the molar value.
Columns and labels:
[1] = biological target: T1, mouse CD38 (Mus musculus, UniProt P56528); assay: mouse recombinant CD38 enzyme assay (hydrolysis of NAD+); type: biochemical; conditions: read-out: mCD38 BioChem IC50
T1 sequence (P56528 1-304): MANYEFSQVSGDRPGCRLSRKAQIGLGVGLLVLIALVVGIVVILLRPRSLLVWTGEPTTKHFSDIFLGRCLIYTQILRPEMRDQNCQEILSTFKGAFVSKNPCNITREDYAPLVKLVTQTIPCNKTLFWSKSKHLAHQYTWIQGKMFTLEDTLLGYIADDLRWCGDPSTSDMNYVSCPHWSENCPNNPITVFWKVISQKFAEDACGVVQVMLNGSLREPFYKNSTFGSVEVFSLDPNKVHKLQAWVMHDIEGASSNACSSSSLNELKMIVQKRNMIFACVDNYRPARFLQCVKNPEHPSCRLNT
How it was run: (§1)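 Residual NAD+ after 60 min of cell-free hydrolysis by recombinant mouse or human CD38 at ambient temperature, measured over a dose range. Detection used ADH conversion to NADH, then diaphorase-coupled resazurin-to-resorufin fluorescence (Ex/Em 540/590 nm).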

[2] = biological target: T2, endogenous CD38 in HL60 cells (Homo sapiens, UniProt P28907); assay: cellular CD38 assay in HL60 cells (cellular NAD levels); type: cell-based; conditions: all-trans retinoic acid, 24 hours, read-out: hCD38 HL60 ATRA NAD Cell Diaphorase IC50
T2 construct: endogenous in cells; host or cells: HL60 (leukemic cells, treated with all-trans retinoic acid)
T2 sequence (P28907 1-300): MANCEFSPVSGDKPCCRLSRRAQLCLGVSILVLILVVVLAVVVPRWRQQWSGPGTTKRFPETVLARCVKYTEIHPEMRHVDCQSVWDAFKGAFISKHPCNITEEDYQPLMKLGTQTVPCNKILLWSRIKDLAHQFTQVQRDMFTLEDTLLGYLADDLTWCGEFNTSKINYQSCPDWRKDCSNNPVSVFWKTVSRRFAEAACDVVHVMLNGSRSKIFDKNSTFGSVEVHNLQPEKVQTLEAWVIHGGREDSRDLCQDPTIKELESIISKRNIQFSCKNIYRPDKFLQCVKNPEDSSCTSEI
How it was run: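 Endogenous CD38 inhibition is inferred from NAD levels in HL60 cells after 24 h compound exposure at 20000 cells per well. A lytic cycling readout (0.2 U/mL diaphorase, 0.8 U/mL alcohol dehydrogenase, resazurin, FMN, ethanol, 0.2% Triton X-100, Tris/EDTA pH 8.4) ran 60 min at ambient temperature. Resorufin fluorescence was read at 540/590 nm.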

[3] = biological target: T3, human CD38 (Homo sapiens, UniProt P28907); assay: human recombinant CD38 enzyme assay (hydrolysis of NAD+); type: biochemical; conditions: human recombinant CD38, 0.4 nM enzyme, 62.5 μM NAD+; read-out: hCD38 BioChem IC50
T3 sequence (P28907 1-300): T2 sequence (P28907 1-300)
How it was run: as §1

| pIC50 [1] | pIC50 [2] | pIC50 [3] | Compound |
| --- | --- | --- | --- |
| 8.49 | 5.82 | 7.97 | Cn1cncc1-c1nc(C(=O)N[C@@H]2C[C@@H]3[C@H](C2)C3(F)F)cc(C2CCOCC2)n1 [Compound 280, N-((1R,3s,5S)-6,6-difluorobicyclo[3.1.0]hexan-3-yl)-2-(1-methyl-1H-imidazol-5-yl)-6-(tetrahydro-2H-pyran-4-yl)pyrimidine-4-carboxamide] |
| 8.40 | 5.75 | 8.10 | CC(C)c1cc(C(=O)Nc2ccc(C(F)(F)F)nc2)nc(-c2cncn2C)n1 [Compound 174, 6-isopropyl-2-(1-methyl-1H-imidazol-5-yl)-N-(6-(trifluoromethyl)pyridin-3-yl)pyrimidine-4-carboxamide] |
| 7.19 | 4.98 | 6.35 | Cc1ncccc1NC(=O)c1cccc(-n2ccnc2)n1 [Compound 27, 6-(1H-imidazol-1-yl)-N-(2-methylpyridin-3-yl)picolinamide] |
| 7.13 | 5.39 | 6.54 | CCO[C@H]1C[C@H](NC(=O)c2nccc(-c3cncn3C)n2)C1 [Compound 299, N-((1r,3r)-3-ethoxycyclobutyl)-4-(1-methyl-1H-imidazol-5-yl)pyrimidine-2-carboxamide] |
| 7.92 | 5.10 | 6.79 | CO[C@H]1CC[C@H](NC(=O)c2nc(-c3cncn3C)cc(C3CC3)n2)CC1 [Compound 203, 4-cyclopropyl-N-((1r,4r)-4-methoxycyclohexyl)-6-(1-methyl-1H-imidazol-5-yl)pyrimidine-2-carboxamide] |
| 7.20 | 4.98 | 6.53 | COc1ncc(-c2cncn2C)nc1C(=O)N[C@H]1CC[C@H](OC)CC1 [Compound 303, 3-methoxy-N-((1r,4r)-4-methoxycyclohexyl)-6-(1-methyl-1H-imidazol-5-yl)pyrazine-2-carboxamide] |
| 7.52 | 5.79 | 6.84 | O=C(NC1CC2(C1)CC(F)(F)C2)c1cncc(-n2ccnc2)n1 [Compound 103, N-(6,6-difluorospiro[3.3]heptan-2-yl)-6-(1H-imidazol-1-yl)pyrazine-2-carboxamide] |
| 7.21 | 5.21 | 6.58 | CO[C@H]1CC[C@H](NC(=O)c2nc(-n3ccnc3)ccc2C)CC1 [Compound 100, 6-(1H-imidazol-1-yl)-N-(4-methoxycyclohexyl)-3-methylpicolinamide] |
| 7.97 | 5.68 | 8.10 | Cn1cncc1-c1nc(C(=O)N[C@H]2C[C@](O)(c3ccccc3)C2)cc(C2CCOCC2)n1 [Compound 277, N-((1s,3s)-3-hydroxy-3-phenylcyclobutyl)-2-(1-methyl-1H-imidazol-5-yl)-6-(tetrahydro-2H-pyran-4-yl)pyrimidine-4-carboxamide] |
| 7.90 | 5.28 | 7.69 | COc1cc(C(=O)Nc2ccc(C(F)(F)F)nc2)nc(-c2cncn2C)c1 [Compound 226, 4-methoxy-6-(1-methyl-1H-imidazol-5-yl)-N-(6-(trifluoromethyl)pyridin-3-yl)picolinamide] |
| 9.00 | 5.80 | 8.00 | Cc1cc(C(=O)N[C@H]2CC[C@H](C)CC2)nc(-n2ccnc2)n1 [Compound 119, 2-(1H-imidazol-1-yl)-6-methyl-N-((1r,4r)-4-methylcyclohexyl)pyrimidine-4-carboxamide] |
| 7.84 | 5.69 | 7.78 | Cn1cncc1-c1ccnc(C(=O)N[C@H]2C[C@H](c3cccc(F)c3)C2)n1 [Compound 241, N-((1r,3r)-3-(3-fluorophenyl)cyclobutyl)-4-(1-methyl-1H-imidazol-5-yl)pyrimidine-2-carboxamide] |
| 9.00 | 6.11 | 8.30 | Cn1cncc1-c1nccc(C(=O)N[C@H]2CC[C@H](C(F)F)CC2)n1 [Compound 70, N-((1r,4r)-4-(difluoromethyl)cyclohexyl)-2-(1-methyl-1H-imidazol-5-yl)pyrimidine-4-carboxamide] |
| 7.54 | 5.47 | 7.06 | O=C(NC1CCCOC1)c1cccc(-n2ccnc2)n1 (stereo not drawn) [Compound 49, 6-(1H-imidazol-1-yl)-N-(tetrahydro-2H-pyran-3-yl)picolinamide] |
| 9.00 | 6.60 | 8.82 | COCCOc1cc(C(=O)Nc2ccc(C(F)F)nc2)nc(-c2cncn2C)n1 [Compound 307, N-(6-(difluoromethyl)pyridin-3-yl)-6-(2-methoxyethoxy)-2-(1-methyl-1H-imidazol-5-yl)pyrimidine-4-carboxamide] |
| 8.60 | 5.40 | 7.95 | Cn1cncc1-c1nc(C(=O)N[C@H]2CCc3cc(F)ccc32)cc(C2CCOCC2)n1 [Compound 229, (S)-N-(5-fluoro-2,3-dihydro-1H-inden-1-yl)-2-(1-methyl-1H-imidazol-5-yl)-6-(tetrahydro-2H-pyran-4-yl)pyrimidine-4-carboxamide] |
| 7.88 | 5.69 | 7.55 | Cn1cncc1-c1ccnc(C(=O)N[C@H]2C[C@H](c3ccccc3F)C2)n1 [Compound 240, N-((1r,3r)-3-(2-fluorophenyl)cyclobutyl)-4-(1-methyl-1H-imidazol-5-yl)pyrimidine-2-carboxamide] |
| 9.00 | 5.86 | 7.77 | Cc1cc(C(=O)NC2CC3(C2)CC(F)(F)C3)nc(-c2cncn2C)n1 [Compound 124, N-(6,6-difluorospiro[3.3]heptan-2-yl)-6-methyl-2-(1-methyl-1H-imidazol-5-yl)pyrimidine-4-carboxamide] |
| 8.00 | 6.04 | 7.66 | O=C(N[C@H]1CC[C@H](C(F)F)CC1)c1cncc(-n2ccnc2)n1 [Compound 89, N-((1r,4r)-4-(difluoromethyl)cyclohexyl)-6-(1H-imidazol-1-yl)pyrazine-2-carboxamide] |
| 6.76 | 5.40 | 6.70 | O=C(N[C@H]1C[C@H](c2ccc(C(F)(F)F)nc2)C1)c1nccc(-n2ccnc2)n1 [Compound 269, 4-(1H-imidazol-1-yl)-N-((1r,3r)-3-(6-(trifluoromethyl)pyridin-3-yl)cyclobutyl)pyrimidine-2-carboxamide] |
| 7.28 | 5.31 | 6.84 | Cn1cncc1-c1ccnc(C(=O)N[C@H]2C[C@H](Oc3ccccc3)C2)n1 [Compound 220, 4-(1-methyl-1H-imidazol-5-yl)-N-((1r,3r)-3-phenoxycyclobutyl)pyrimidine-2-carboxamide] |
| 7.28 | 5.01 | 6.49 | Cn1cncc1-c1ccnc(C(=O)N[C@H]2C[C@@H](c3ccccc3)C2)n1 [Compound 214, 4-(1-methyl-1H-imidazol-5-yl)-N-((1s,3s)-3-phenylcyclobutyl)pyrimidine-2-carboxamide] |
| 9.00 | 5.98 | 7.85 | CO[C@H]1CC[C@H](NC(=O)c2cc(C)nc(-c3cncn3C)n2)CC1 [Compound 121, N-((1r,4r)-4-methoxycyclohexyl)-6-methyl-2-(1-methyl-1H-imidazol-5-yl)pyrimidine-4-carboxamide] |
| 9.00 | 6.30 | 8.72 | COCCOc1cc(C(=O)Nc2ccc(C(F)F)nc2)nc(-n2ccnc2)c1 [Compound 244, N-(6-(difluoromethyl)pyridin-3-yl)-6-(1H-imidazol-1-yl)-4-(2-methoxyethoxy)picolinamide] |
| 8.22 | 6.82 | 8.70 | Cn1cncc1-c1ccnc(C(=O)Nc2ccc(C(F)F)nc2)n1 [Compound 147, N-(6-(difluoromethyl)pyridin-3-yl)-4-(1-methyl-1H-imidazol-5-yl)pyrimidine-2-carboxamide] |
| 7.85 | 6.89 | 8.52 | O=C(Nc1ccc(C(F)F)nc1)c1nccc(-n2ccnc2)n1 [Compound 144, N-(6-(difluoromethyl)pyridin-3-yl)-4-(1H-imidazol-1-yl)pyrimidine-2-carboxamide] |
| 8.22 | 6.38 | 8.22 | O=C(Nc1cccc(F)c1)c1cccc(-n2ccnc2)n1 [Compound 18, N-(3-fluorophenyl)-6-(1H-imidazol-1-yl)picolinamide] |

| Compound | pIC50 [1] | pIC50 [2] | pIC50 [3] |
| --- | --- | --- | --- |
| Cn1cncc1-c1ccnc(C(=O)Nc2ccc(OC3CC(F)(F)C3)nc2)n1 [Compound 319] | 8.22 | 6.02 | 8.44 |

— US20230116972A1, “CD38 MODULATORS AND METHODS OF USE THEREOF” (Cytokinetics, Inc., priority 2021, published 2023)
